The series in a line: Water solubility and temperature responsibility in aqueous solvent (visual / turbidity). The source says:
However, the depsipeptide unit is not considered to be a material which exerts temperature responsibility in an aqueous solvent containing no organic solvent. […] Accordingly, the depsipeptide unit -Gly-X2-Cly-Hmb-Pro-(X2=any α-amino acid residue) is thought to be unsuitable as a temperature responsive material and thus has not been investigated intensively.

For “Poly[(Gly^1-Val^2-Gly^3-Hmb^4-Ala^5-Pro^6)-co-(Gly^7-Lys(Z)^8-Gly^9-Val^10-Ala^11-Pro^12)]”, the “temperature responsibility in aqueous solvent” value is “temperature responsibility thereof was confirmed”.

Values taken from patent US20090275730A1, “Temperature responsive depsipeptide polymer” (priority 2004, published 2009).
